Test results taken from patent US20250276993A1, “PSEUDO-DISACCHARIDE COMPOUNDS” (UNIVERSITEIT LEIDEN, priority 2022, published 2025).

What was measured:
[1] = tested on: 4T1 mouse mammary carcinoma cells; assay: 4T1 breast cancer lung metastasis model; assay type: in vivo, Balb/c mice; conditions: 2: 300 nmol/mouse i.p.; SST0001: 150 μg/mouse i.p.; bioluminescence, 14 day timepoint
Method: 4T1 breast cancer—Twenty minutes before tumor cell inoculation, Balb/c mice (n=5) were injected intraperitoneally with vehicle alone (PBS), compound 2 (300 nmol/mouse), or SST0001 (150 μg/mouse). Mice were subsequently intravenously inoculated with 1.5×10^5 luciferase tagged 4T1 mouse mammary carcinoma cells/mouse in a volume of 100 μL, alongside 20 μM 2 or 10 μg SST0001.
Bioluminescence imaging of lung metastases produced by luciferase-expressing 4T1 cells was carried out using a highly sensitive, cooled charge-coupled device camera assembled in a specimen box (IVIS; Xenogen Corp, Hopkinton, MA). For this, the tumor-bearing mice were intraperitoneally administered with a luciferase substrate D-luciferin at a dose of 150 mg/kg body weight. The mice were anesthetized and kept in a camera box followed by continuous exposure to isoflurane (EZAnesthesia, Palmer, PA, USA). The tumor burden was quantified using Living Image software (Xenogen) (U. Barash et al., Journal of the National Cancer Institute 110, 1102-1114, 2018; M. Weissmann et al., Proc Natl Acad Sci, 113, 704-709, 2016)
The compounds of the invention were tested against a B16 murine melanoma experimental metastasis model, which measures the formation of metastatic lung tumors by B16 cancer cells after intravenous (i.v.) injection. […]

HPSE = biological target: T1, HPSE (Homo sapiens, UniProt Q9Y251); assay: cABPP Assay 1, recombinant HPSE; assay type: biochemical; conditions: 1 h preincubation at 37° C., pH 5.5, 100 nM ABP 7
T1 sequence (Q9Y251 36-109 limits assumed): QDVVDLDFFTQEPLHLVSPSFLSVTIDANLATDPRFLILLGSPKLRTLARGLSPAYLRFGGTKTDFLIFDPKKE
T1 sequence (Q9Y251 158-543 limits assumed): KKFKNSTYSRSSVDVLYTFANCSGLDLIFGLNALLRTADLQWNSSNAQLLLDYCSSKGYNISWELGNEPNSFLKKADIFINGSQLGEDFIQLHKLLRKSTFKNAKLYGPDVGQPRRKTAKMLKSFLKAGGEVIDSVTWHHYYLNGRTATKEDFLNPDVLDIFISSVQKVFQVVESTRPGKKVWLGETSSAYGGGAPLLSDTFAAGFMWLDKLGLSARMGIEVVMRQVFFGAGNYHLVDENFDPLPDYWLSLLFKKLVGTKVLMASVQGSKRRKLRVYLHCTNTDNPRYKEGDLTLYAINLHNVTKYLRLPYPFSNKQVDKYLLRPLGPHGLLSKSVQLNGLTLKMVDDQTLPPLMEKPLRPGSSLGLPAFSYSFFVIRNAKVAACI

GUSB = biological target: T2, GUSB (Homo sapiens, UniProt P08236); assay: cABPP Assay 2, platelet lysates, GUSB; assay type: biochemical; conditions: preincubation with inhibitor
T2 construct: Platelet lysates contain complex mixtures of overlapping enzyme activities, including both endo- and exo-β-glucuronidases HPSE and GUSB; endogenous in cells; host or cells: human platelet lysates
T2 sequence (P08236 23-651): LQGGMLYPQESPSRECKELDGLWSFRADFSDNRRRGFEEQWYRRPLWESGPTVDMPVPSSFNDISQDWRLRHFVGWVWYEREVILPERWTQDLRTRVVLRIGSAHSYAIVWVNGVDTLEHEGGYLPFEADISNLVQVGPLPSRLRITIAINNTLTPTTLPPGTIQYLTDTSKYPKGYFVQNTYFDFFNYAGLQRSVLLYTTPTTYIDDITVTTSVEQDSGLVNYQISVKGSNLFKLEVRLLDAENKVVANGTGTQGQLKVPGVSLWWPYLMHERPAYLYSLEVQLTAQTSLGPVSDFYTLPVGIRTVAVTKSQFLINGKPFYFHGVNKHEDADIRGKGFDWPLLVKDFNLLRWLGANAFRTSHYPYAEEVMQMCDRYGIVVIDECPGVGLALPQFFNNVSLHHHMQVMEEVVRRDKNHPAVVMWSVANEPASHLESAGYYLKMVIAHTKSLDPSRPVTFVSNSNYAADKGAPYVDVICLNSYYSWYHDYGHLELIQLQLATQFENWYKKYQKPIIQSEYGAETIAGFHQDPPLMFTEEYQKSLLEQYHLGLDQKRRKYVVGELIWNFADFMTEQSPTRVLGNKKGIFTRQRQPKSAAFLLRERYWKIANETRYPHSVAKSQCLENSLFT
Method: For further competitive ABPP studies, a working protein mixture was prepared by mixing the platelet lysates (87.5 μL), buffer (pH 5.0, 150 mM, 157.5 μL) and 3 M NaCl solution (35 μL). The enzymatic reactions were carried out at a constant concentration of read-out 7 (100 nM, final). For each inhibitor 2, 12 and 13, triplicate sets of ten 0.5 mL low protein binding Eppendorf tubes were prepared. Working solutions of each inhibitor (1% DMSO (w/v), 5 μL) in a range of ten concentrations (100, 50, 25, 12.5, 6.3, 3.1, 1.6, 0.8, 0.4, 0 μM) were prepared with MilliQ water and kept on ice. The working protein mixture (8 μL) was added in each protein low binding 0.5 mL Eppendorf tube, and 1 μL of inhibitor solution was added while on ice.
Further cABPP studies were undertaken using platelet lysates to provide a more physiologically realistic environment. Platelet lysates contain complex mixtures of overlapping enzyme activities, including both endo- and exo-β-glucuronidases HPSE and GUSB respectively, thus provide a challenging environment to test inhibitor specificity.

B16-BL6 melanoma cells = assay: B16 melanoma experimental lung metastasis model; assay type: in vivo, C57BL/J6 mice; conditions: after 14 days; 2: 300 nmol/mouse i.p.; SST0001: 150 μg/mouse i.p.; vs PBS-only control
Method: B16 melanoma—Twenty minutes before tumor cell inoculation, C57BL/J6 mice (n=5) were injected intraperitoneally with vehicle alone (PBS), compound 2 (300 nmol/mouse), or SST0001 (150 μg/mouse). Mice were subsequently intravenously inoculated with 1.5×10^5 B16-BL6 melanoma cells/mouse in a volume of 100 μL, alongside 20 μM 2 or 10 μg SST0001. Mice were sacrificed after 14 days and the lungs were dissected, photographed and evaluated for the number of metastatic foci/lung.
The compounds of the invention were tested against a B16 murine melanoma experimental metastasis model, which measures the formation of metastatic lung tumors by B16 cancer cells after intravenous (i.v.) injection. Additionally, the compounds of the invention were tested against a second cancer model—4T1 murine mammary carcinoma, which also metastasizes to the lungs upon injection.

## CC(=O)NC1C(O)[C@H](O)C(CO)O[C@@H]1O[C@H]1C(O)C(O)[C@@H]2OC2C1C(=O)O (stereo partly drawn) [Compound 2, 4-O-(2-N-acetyl-2-deoxy-D-glucopyranosyl)-glucurono-cyclophellitol]
[1]
  incidence of lung metastases (4T1): marked reduction in the incidence of lung metastases
HPSE
  HPSE inhibition (abrogation of labelling by ABP 7): inhibited HPSE at nanomolar concentrations
GUSB
  effect on GUS signals: without altering GUS signals
B16-BL6 melanoma cells
  lung metastases (B16): marked reduction in lung growths
